According to BindingDB's records for patent US10166249 (Bristol-Myers Squibb, 2019):

Target: Sphingosine 1-phosphate receptor 1 (Homo sapiens, UniProt P21453)
Assay: hS1P1 ERK Phosphorylation (S1P1 pERK)
Procedure: hS1P1/CHO cells were plated into BD Amine 384-well plates the day before the assay. On the day of the assay, growth medium was removed and replaced with serum-free medium (Ham's F-12 Invitrogen) and incubated for 2 hours. Test compounds pre-diluted in HBSS (Gibco)/20 mM HEPES (Gibco) were transferred to the cell plates and incubated for 7 minutes at 37° C. Cells were lysed in lysis buffer (Perkin Elmer) and phospho-ERK was measured using the SureFire pERK kit (Perkin Elmer) as described by the manufacturer. Data was plotted as percentage activation of the test compound relative to the efficacy of 10 μM S1P.

Sphingosine 1-phosphate receptor 1, sequence (P21453 whole entry): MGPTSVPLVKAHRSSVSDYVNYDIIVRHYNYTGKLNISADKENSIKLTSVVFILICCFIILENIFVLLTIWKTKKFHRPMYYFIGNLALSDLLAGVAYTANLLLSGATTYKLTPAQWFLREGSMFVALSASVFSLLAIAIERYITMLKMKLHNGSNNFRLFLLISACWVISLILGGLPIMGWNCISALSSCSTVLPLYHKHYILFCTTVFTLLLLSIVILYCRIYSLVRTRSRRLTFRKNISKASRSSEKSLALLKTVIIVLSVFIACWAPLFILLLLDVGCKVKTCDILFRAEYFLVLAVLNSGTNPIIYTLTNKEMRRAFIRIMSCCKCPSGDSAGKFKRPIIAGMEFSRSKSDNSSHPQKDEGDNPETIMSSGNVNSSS

EC50: < 10 nM
SMILES: CCSCC[C@H]1CCc2cc([C@H]3CC[C@](N)(COP(=O)(O)O)C3)ccc2C1 [US10166249, Example 532]
